Measured values as given in the supplement of paper PMC5908809.

What was measured:
[1] = system: normal NK cells expanded with K562-aAPC; experiment: percent inhibition of viability; higher = more inhibition; conditions: 72 h, IL-2 2.5 ng/mL
Description: (§1)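 Drug sensitivity and resistance testing on K562-aAPC-expanded normal NK cells: 5 concentrations (10-fold steps over a 10,000-fold range), 72 h at 37 °C, viability by CellTiter-Glo normalised to DMSO and benzethonium chloride controls; DSS from the fitted curve.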

[2] = system: DERL-7 (IL-2 2.5 ng/mL); experiment: as above; conditions: 72 h
[3] = system: IMC-1 (IL-2 20 ng/mL); experiment: as above; conditions: 72 h
[4] = system: KAI3 (IL-2 2.5 ng/mL); experiment: as above; conditions: 72 h
[5] = system: KHYG-1 (IL-2 2.5 ng/mL); experiment: as above; conditions: 72 h
[6] = system: NK-92 (IL-2 2.5 ng/mL); experiment: as above; conditions: 72 h
[7] = system: NK-YS (IL-2 2.5 ng/mL); experiment: as above; conditions: 72 h
[8] = system: NKL (IL-2 2.5 ng/mL); experiment: as above; conditions: 72 h
[9] = system: SNK-6 (IL-2 2.5 ng/mL); experiment: as above; conditions: 72 h
[10] = system: YT (IL-2 2.5 ng/mL); experiment: as above; conditions: 72 h
[11] = system: normal primary NK cells, pool 1 (3 donors) (IL-2 2.5 ng/mL); experiment: as above; conditions: 72 h
[12] = system: normal primary NK cells, pool 1 (3 donors), resting (IL-2 0 ng/mL); experiment: as above; conditions: 72 h
[13] = system: normal primary NK cells, pool 2 (3 donors) (IL-2 2.5 ng/mL); experiment: as above; conditions: 72 h
[14] = system: normal primary NK cells, pool 3 (3 donors) (IL-2 2.5 ng/mL); experiment: as above; conditions: 72 h
[15] = system: normal NK cells expanded with K562-aAPC; experiment: drug sensitivity score (DSS) (DSS units); higher = more sensitive; extreme values may be limits of the assay; conditions: 72 h; IL-2 2.5 ng/mL
Description: as §1

[16] = system: DERL-7 (IL-2 2.5 ng/mL); experiment: as above; conditions: 72 h
[17] = system: IMC-1 (IL-2 20 ng/mL); experiment: as above; conditions: 72 h
[18] = system: KAI3 (IL-2 2.5 ng/mL); experiment: as above; conditions: 72 h
[19] = system: KHYG-1 (IL-2 2.5 ng/mL); experiment: as above; conditions: 72 h
[20] = system: NK-92 (IL-2 2.5 ng/mL); experiment: as above; conditions: 72 h
[21] = system: NK-YS (IL-2 2.5 ng/mL); experiment: as above; conditions: 72 h
[22] = system: NKL (IL-2 2.5 ng/mL); experiment: as above; conditions: 72 h
[23] = system: SNK-6 (IL-2 2.5 ng/mL); experiment: as above; conditions: 72 h
[24] = system: YT (IL-2 2.5 ng/mL); experiment: as above; conditions: 72 h
[25] = system: normal primary NK cells, pool 1 (3 donors) (IL-2 2.5 ng/mL); experiment: as above; conditions: 72 h
[26] = system: normal primary NK cells, pool 1 (3 donors), resting (IL-2 0 ng/mL); experiment: as above; conditions: 72 h
[27] = system: normal primary NK cells, pool 2 (3 donors) (IL-2 2.5 ng/mL); experiment: as above; conditions: 72 h
[28] = system: normal primary NK cells, pool 3 (3 donors) (IL-2 2.5 ng/mL); experiment: as above; conditions: 72 h

C=CCNC1=C2C[C@@H](C)C[C@H](OC)[C@H](O)[C@@H](C)/C=C(\C)[C@H](OC(N)=O)[C@@H](OC)/C=C\C=C(/C)C(=O)NC(=CC1=O)C2=O [Tanespimycin] (max concentration tested 10000 nM)
percent inhibition of viability [%]
Conditions	1 nM	10 nM	100 nM	1000 nM	10000 nM
[1]	-6.12	-2.4	32.3	99.3	100
[2]	0.9	-1.85	35.9	101	101
[3]	-1.67	0.76	3.61	99.8	101
[4]	0.55	5.14	60.9	104	105
[5]	-4.47	0.32	7.33	103	106
[6]	-11.8	-0.27	37.7	99.1	100
[7]	-3.46	-0.46	63.4	103	105
[8]	-8.98	-11.1	73.2	91.9	91.2
[9]	3.74	-19.1	41.6	87.7	89.8
[10]	-5.76	-8.38	13.2	94.7	101
[11]	1.58	12.9	49.5	87.4	92.3
[12]	-6.62	18.1	28.8	51.2	69.4
[13]	-2.56	2.25	36.4	80	85.7
[14]	-2.89	-1.44	15.4	76.7	89.1

Conditions	drug sensitivity score
[15]	22.6
[16]	23
[17]	18.4
[18]	25.3
[19]	19.3
[20]	23.1
[21]	25.4
[22]	25
[23]	21.6
[24]	19.1
[25]	22.4
[26]	14
[27]	19.2
[28]	16

CNC(=O)c1cc(COc2nnc(Nc3ccc(Cl)cc3)c3ccoc23)ccn1 [Telatinib] (max concentration tested 10000 nM)
percent inhibition of viability [%]
Conditions	1 nM	10 nM	100 nM	1000 nM	10000 nM
[1]	-1.26	-3.44	0.95	10.9	8.85
[2]	-7.49	-0.52	-1.32	7.55	16.5
[3]	-1.29	6.77	10.7	6.73	6.92
[4]	-1.15	-3.17	-1.98	4.4	17.6
[5]	-4.25	1.6	0.07	3.62	17.2
[6]	-14.3	7.86	8.96	9.44	25.7
[7]	-3.24	-3.74	3.78	6.85	18
[8]	4.45	8.77	17.6	24.9	37.5
[9]	-6.76	-18.2	-10.9	-17.2	39.8
[10]	-6.03	-1.57	0.93	8.01	8.35
[11]	-11.3	3.32	6.19	3.83	4.17
[12]	-33.8	-3.86	0.16	-3.05	3.2
[13]	-8.51	7.4	6.24	-6.6	-0.18
[14]	-12.1	2.04	1.9	-5.46	-0.21

Conditions	drug sensitivity score
[15]	0.23
[16]	1
[17]	0.48
[18]	0.91
[19]	0.8
[20]	1.85
[21]	0.7
[22]	7.2
[23]	1.33
[24]	0
[25]	0
[26]	0
[27]	0
[28]	0

Nc1nc2[nH]cnc2c(=S)[nH]1 [Thioguanine] (max concentration tested 10000 nM)
percent inhibition of viability [%]
Conditions	1 nM	10 nM	100 nM	1000 nM	10000 nM
[1]	-4.14	-5.02	-5.79	6.11	56.7
[2]	-5.49	1.22	-5.6	8.62	87.2
[3]	-5.55	-1.21	-1.21	33.3	97.2
[4]	-7.74	-2.97	-0.62	15.1	78.8
[5]	-13.1	-8.14	-0.41	99.5	106
[6]	-10.2	-5.6	17.5	52.7	98.4
[7]	-7.28	-5.53	13.5	84.7	95.8
[8]	-14	-21.1	1.79	26.9	93.4
[9]	-10.4	-12.3	-12.4	52.4	96.7
[10]	-6.35	-2.99	5.94	87.9	105
[11]	2.84	12.9	10.3	6.9	52.7
[12]	1.38	16.6	9.25	15.6	37.5
[13]	-0.91	-2.84	9.06	9.05	55
[14]	-3.74	-0.43	9.27	10.8	44

Conditions	drug sensitivity score
[15]	4.06
[16]	6.23
[17]	10
[18]	6.83
[19]	17.9
[20]	12.4
[21]	17.2
[22]	9.15
[23]	11.7
[24]	16.8
[25]	3.98
[26]	4.42
[27]	4.48
[28]	3.64

COc1cc2nccc(Oc3ccc(NC(=O)Nc4cc(C)on4)c(Cl)c3)c2cc1OC [Tivozanib] (max concentration tested 10000 nM)
percent inhibition of viability [%]
Conditions	1 nM	10 nM	100 nM	1000 nM	10000 nM
[1]	-1.14	-3.52	-0.12	3.67	-4.22
[2]	6.25	-4.07	8.65	3.71	74.2
[3]	0.39	1.69	-1.08	4.81	20.3
[4]	0.42	12.7	7.97	8.25	33.2
[5]	2.06	3.29	1.48	11.4	50.2
[6]	17.7	7.65	22.3	42.5	71
[7]	-1.25	1.72	3.3	12.8	64.8
[8]	-0.1	-11	-5.13	8.13	47.4
[9]	0.59	1.54	-8.58	41.8	65.3
[10]	8.31	9.93	8.18	19.9	61.6
[11]	-3.27	-5.56	-13	7.21	36.9
[12]	5.37	-0.35	5.84	18.5	67.5
[13]	5.79	7.02	3.11	-2.45	29.2
[14]	8.53	3.31	5.07	0.75	3.16

Conditions	drug sensitivity score
[15]	0
[16]	4.63
[17]	1.23
[18]	2.57
[19]	4.48
[20]	11.5
[21]	5.65
[22]	3.83
[23]	8.55
[24]	5.67
[25]	2.94
[26]	6.37
[27]	1.08
[28]	0

C[C@@H]1CCN(C(=O)CC#N)C[C@@H]1N(C)c1ncnc2[nH]ccc12 [Tofacitinib] (max concentration tested 5000 nM)
percent inhibition of viability [%]
Conditions	0.5 nM	5 nM	50 nM	500 nM	5000 nM
[1]	0.56	-0.5	34.7	89.7	96.1
[2]	4.68	5.82	37.9	76.5	100
[3]	-6.11	-7.94	-16.8	34.5	92.1
[4]	-5.21	10.5	45.3	82.7	85.5
[5]	-4.2	2.4	59.4	100	98.6
[6]	-2.4	-2.12	17.6	66.9	80.8
[7]	-1.06	4.19	22	56.2	67.5
[8]	-18.4	5	56.6	78.2	86.8
[9]	-3.6	10	22.4	80.2	77.1
[10]	-1.31	-0.82	0.63	46.5	64.1
[11]	-7	-4.5	19.9	68.1	69.8
[12]	-2.2	-5.26	-18	7.52	-1.29
[13]	-14	-8.22	19.6	60.2	67
[14]	-10.3	-4.27	6.35	48.6	60.7

Conditions	drug sensitivity score
[15]	20.7
[16]	19.1
[17]	9.8
[18]	20.8
[19]	25.1
[20]	14.5
[21]	13
[22]	22.6
[23]	17.6
[24]	8.99
[25]	15.6
[26]	0
[27]	13.7
[28]	9.81
